Assay results from patent publication US20240368163A1, “COMPOUNDS AND METHODS FOR MODULATING SPLICING” (REMIX THERAPEUTICS INC., priority 2021, published 2024).
Like-named read-outs stand apart in the source and are kept apart here.

Key:
Assay type in all cases: cell-based, human
Target C [1] = assay: Splicing RT-qPCR panel, Target C canonical junction (CJ) mRNA; conditions: Homo sapiens, read-out: Target C IC50 (decrease in CJ mRNA levels)
Method in brief: (§1)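 Splice switching is measured in A673 or K562 cells after 24 h compound exposure (maximum 10 uM, 3-fold steps). Canonical and alternative junction mRNA levels are quantified by RT-qPCR relative to housekeeper and DMSO.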

HTT [2] = assay: HiBiT protein abundance assay, HTT; conditions: Homo sapiens, K562, 24 h, modified K562 cells
Method in brief: (§2)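 Target abundance was measured as HiBiT luminescence after 24 h compound treatment of tagged K562 cells. Responses were normalized between unmodified K562 and DMSO-treated tagged cells, and IC50 taken at the 50% level of a 4PL curve.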

Target C [3] = assay: HiBiT protein abundance assay, Target C; conditions: Homo sapiens, K562, 24 h, modified K562 cells
Method in brief: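 Cells carrying the HiBiT knock-in were plated at 10000 cells/well, dosed with compound (10-point, 3-fold, 10 μM top final) and incubated 24 hours at 37 °C. Lytic reagent was then added and luminescence read. Percent response fed a 4PL fit for IC50.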

MYB [4] = assay: Splicing RT-qPCR assay, MYB mRNA canonical junction (CJ) and alternative junction (AJ); conditions: Homo sapiens; for AC50: increase in AJ mRNA
Method in brief: as §1

HTT [5] = assay: Splicing RT-qPCR assay, HTT mRNA canonical junction (CJ) and alternative junction (AJ); conditions: Homo sapiens; for AC50: increase in AJ mRNA
Method in brief: as §1

SMN2 = assay: Splicing RT-qPCR panel, SMN2 canonical junction (CJ) mRNA; conditions: Homo sapiens, read-out: SMN2 IC50 (decrease in CJ mRNA levels)
Method in brief: as §1

MYB [6] = assay: HiBiT protein abundance assay, MYB; conditions: Homo sapiens, K562, 24 h, modified K562 cells
Method in brief: as §2

[7] = RT-qPCR panel, canonical junction mRNA, compound concentration having 50% response in CJ decrease
[8] = 24 h, decrease in CJ mRNA, A673 or K562 cells, 24 hours treatment, RT-qPCR, read-out: MYB CJ IC50
[9] = 24 h, A673 or K562 cells, 24 hours treatment, RT-qPCR
[10] = RT-qPCR panel, canonical junction mRNA, compound concentration having 50% response in CJ decrease, read-out: MYB IC50 (decrease in CJ mRNA levels)
[11] = 24 h, decrease in CJ mRNA, A673 or K562 cells, 24 hours treatment, RT-qPCR, read-out: HTT CJ IC50
[12] = RT-qPCR panel, canonical junction mRNA, compound concentration having 50% response in CJ decrease, read-out: HTT IC50 (decrease in CJ mRNA levels)
[13] = gene panel, CJ qPCR, protocol of Example 142
[14] = gene panel, CJ qPCR, protocol of Example 142, read-out: MYB IC50 (decrease in CJ mRNA levels)
[15] = gene panel, CJ qPCR, protocol of Example 142, read-out: HTT IC50 (decrease in CJ mRNA levels)

| SMILES | IC50 (Target C [1]; [7]) [nM] | IC50 (HTT [2]; Table 13A) [nM] | IC50 (Target C [3]; Table 13A) [nM] | IC50 (MYB [4]; [8]) [nM] | AC50 (MYB [4]; [9]) [nM] | IC50 (MYB [4]; [10]) [nM] | IC50 (HTT [5]; [11]) [nM] | AC50 (HTT [5]; [9]) [nM] | IC50 (HTT [5]; [12]) [nM] | IC50 (SMN2; [7]) [nM] | IC50 (MYB [6]; Table 13A) [nM] | IC50 (Target C [1]; [13]) [nM] | IC50 (HTT [2]; Table 13B) [nM] | IC50 (Target C [3]; Table 13B) [nM] | IC50 (MYB [4]; [14]) [nM] | IC50 (HTT [5]; [15]) [nM] | IC50 (SMN2; [13]) [nM] | IC50 (MYB [6]; Table 13B) [nM] |
| --- | --- | --- | --- | --- | --- | --- | --- | --- | --- | --- | --- | --- | --- | --- | --- | --- | --- | --- |
| CN(c1ccc(-c2ccc(-c3cnn(C)n3)c3cn[nH]c23)nn1)C1CCNCC1 [Compound 315, N-methyl-6-[4-(2-methyl-1,2,3-triazol-4-yl)-1H-indazol-7-yl]-N-(piperidin-4-yl)pyridazin-3-amine] | > 10000 | 100 to 1000 | > 10000 | 1000 to 10000 | 1000 to 10000 | 1000 to 10000 | 1000 to 10000 | 1000 to 10000 | 1000 to 10000 | 100 to 1000 | 100 to 1000 | – | – | – | – | – | – | – |
| COc1nc(-c2ccc(N[C@@H]3C[C@H]4CC[C@@H](C3)N4)nn2)ccc1-c1cn(C)nn1 [Compound 944] | – | – | – | – | – | – | – | – | – | – | – | 1000 to 10000 | 1000 to 10000 | 1000 to 10000 | 1000 to 10000 | 100 to 1000 | 100 to 1000 | 100 to 1000 |
| COc1nc(-c2ccc(N(C)[C@@H]3C[C@H]4CC[C@@H](C3)N4)nn2)ccc1-c1cnnc(C)c1 [Compound 960] | – | – | – | – | – | – | – | – | – | – | – | 1000 to 10000 | 1000 to 10000 | > 10000 | 1000 to 10000 | 1000 to 10000 | 100 to 1000 | 1000 to 10000 |
| COc1cc(-c2ccc(-c3ccc(N(C)[C@@H]4C[C@H]5CC[C@@H](C4)N5)nn3)nc2OC)cnn1 [Compound 959] | – | – | – | – | – | – | – | – | – | – | – | 100 to 1000 | < 100 | 100 to 1000 | 100 to 1000 | < 100 | < 100 | 100 to 1000 |
| COc1nc(-c2ccc(N(C)C3C[C@H]4CC[C@@H](C3)N4)nn2)ccc1-c1cnn(C)n1 (stereo partly drawn) [Compound 932] | – | – | – | – | – | – | – | – | – | – | – | 100 to 1000 | 100 to 1000 | 100 to 1000 | 100 to 1000 | 100 to 1000 | 100 to 1000 | 100 to 1000 |
| CN(C)c1nc(-c2ccc(N(C)[C@@H]3C[C@H]4CC[C@@H](C3)N4)nn2)ccc1-c1cn[nH]c1 [Compound 938] | – | – | – | – | – | – | – | – | – | – | – | 1000 to 10000 | 1000 to 10000 | 1000 to 10000 | > 10000 | 1000 to 10000 | 1000 to 10000 | 1000 to 10000 |
| CC1(C)CN(c2ncc(-c3ccc(-c4cn[nH]c4)c4ncsc34)nn2)CC(C)(C)N1 [Compound 563] | > 10000 | 1000 to 10000 | 1000 to 10000 | – | – | 1000 to 10000 | – | – | 1000 to 10000 | 1000 to 10000 | 1000 to 10000 | – | – | – | – | – | – | – |
| c1nc2c(-c3cn[nH]c3)ccc(-c3ccc(N4CC5(CCCNC5)C4)nn3)c2s1 [Compound 187] | > 10000 | 1000 to 10000 | > 10000 | > 10000 | > 10000 | > 10000 | > 10000 | > 10000 | > 10000 | 1000 to 10000 | 1000 to 10000 | – | – | – | – | – | – | – |
| CN(c1ccc(-c2ccc(-c3cn[nH]c3)c3ncsc23)nn1)C1CCNCC1 [Compound 222] | 1000 to 10000 | 100 to 1000 | 1000 to 10000 | 1000 to 10000 | 1000 to 10000 | 1000 to 10000 | 1000 to 10000 | 1000 to 10000 | 1000 to 10000 | 100 to 1000 | 1000 to 10000 | – | – | – | – | – | – | – |
